Data reported in patent US12416052B2, “Capturing, concentrating, and detecting microbes in a sample using magnetic ionic liquids and recombinase polymerase amplification” (priority 2019, dated 2025).

How the values were obtained:
[1] = tested on: S. minnesota SLH 157 (wild type, functional OM); assay: MIL-based whole-cell extraction (capture, wash, back-extraction, plating); set-up: species or system Salmonella enterica; key to Relative Affinity for MIL: +++++: higher losses during wash step are due to lower cellular affinity for the MIL; ++++: higher losses during wash step are due to lower cellular affinity for the MIL; +++: higher losses during wash step are due to lower cellular affinity for the MIL; ++: higher losses during wash step are due to lower cellular affinity for the MIL; +: higher losses during wash step are due to lower cellular affinity for the MIL
Method: (§1) A universal schematic for MIL-based cell extraction is depicted in FIG. 7B. A 1 mL volume of diluted cell suspension was added to a flat-bottomed 4-mL screw cap glass vial. Fifteen microliters of either the Ni(II) or Dy(III) MIL was added and dispersed into microdroplets by vortex agitation for 30 s. The aqueous phase was decanted following dispersive extraction, and the MIL was subjected to a brief wash step using 1 mL of nuclease-free water (Integrated DNA Technologies, Coralville, IA, USA) to ensure adequate removal of loosely or incidentally bound cells. After washing, release of viable cells from the MIL extraction phase was carried out using a “back-extraction” step accomplished through addition of 1 mL of an ionically-rich nutritive medium comprised of 20 g L^−1 tryptone and 10 g L^−1 NaCl, followed by a 120 s vortex step. After back-extraction, aliquots of the cell-enriched back-extraction medium were enumerated using the track dilution method using 100×100 mm square, gridded TSA, BSA, CA or VRBGA plates.
(§2) Following back-extraction, aliquots of the cell-enriched back-extraction medium were serially diluted in 0.1% peptone water and a 10 μL aliquot of each dilution was applied to a separate lane on square plates containing an appropriate agar medium. The plates were then tilted at an approximately 80° angle for 15 min to allow the droplets to travel toward the opposite end of the plate. The plates were incubated for 24 h at 37° C. (TSA, VRBGA), for 48 h at 37° C. (BSA) or for 24 h at 37° C. (CA). Colonies were counted and colony forming units (CFU) were determined. The enrichment factor (EF) for MIL-based extraction was calculated using Equation 1, where CMIL represents the concentration of bacteria in suspension following extraction using the MIL and CS is the initial concentration of bacteria in the sample.
(§3) To further evaluate the importance of the OM to serve as a surface to which the MIL can bind and as a protective layer from potentially deleterious activities of the Ni(II) MIL, capture and recovery of two physiological variants of S. minnesota was performed. The strains compared were S. minnesota SLH 157 (wild type, functional OM) and S. minnesota mR613 (OM mutant). […] Compared to the wild type, cells with a truncated OM are dramatically more susceptible to damage from antimicrobial agents or chemically harsh environments. To study the effect of the Ni(II) MIL exposure on the recovery of wild type and mutant strains of S. minnesota, a 1 mL aliquot of TSB was inoculated with 1×10^5 CFU mL^−1 of bacteria and spiked with 15 μL of the Ni(II) MIL. MIL-based extraction was performed and 10 μL aliquots of the back-extraction solution were enumerated using TSA and BSA plates. Average CFU counts were compared to a standard that was not exposed to the Ni(II) MIL. Extraction and recovery of S. typhimurium was also assessed. Enrichment factors were calculated.
(§4) Although all of the strains assessed were capable of being enriched by the MIL, some species were physically enriched to greater extents than others with extraction. In order to further examine the cause for this finding, the number of captured cells lost to the wash solution was investigated. The wash step is performed after the MIL enrichment step in order to remove any incidentally-adsorbed bacteria prior to back-extraction. It is hypothesized that the cells with lower enrichment factors have lower affinities for the MIL and are therefore lost in greater number to the wash solution than those having higher enrichment factors. […] The percent-loss during the wash step ranged from 47-79%. […] EF data from Table 4 for three overlapping Salmonella strains are superimposed to highlight trends in percent-loss, relative affinity and EF.

[2] = tested on: S. minnesota mR613 (OM mutant, deep rough); assay: as above; set-up: species or system Salmonella enterica; key to Relative Affinity for MIL: +++++: higher losses during wash step are due to lower cellular affinity for the MIL; ++++: higher losses during wash step are due to lower cellular affinity for the MIL; +++: higher losses during wash step are due to lower cellular affinity for the MIL; ++: higher losses during wash step are due to lower cellular affinity for the MIL; +: higher losses during wash step are due to lower cellular affinity for the MIL; details: for Percent-Loss: cells lost to wash solution
Method: as §1, §2, §3, §4

S. bongori = assay: MIL-based whole-cell extraction; set-up: species or system Salmonella bongori; details: 1×10^6 CFU mL^−1 in TSB, 15 μL MIL
Method: (§5) A universal schematic for MIL-based cell extraction is depicted in FIG. 7B. A 1 mL volume of diluted cell suspension was added to a flat-bottomed 4-mL screw cap glass vial. Fifteen microliters of either the Ni(II) or Dy(III) MIL was added and dispersed into microdroplets by vortex agitation for 30 s. The aqueous phase was decanted following dispersive extraction, and the MIL was subjected to a brief wash step using 1 mL of nuclease-free water (Integrated DNA Technologies, Coralville, IA, USA) to ensure adequate removal of loosely or incidentally bound cells. […]
as §2, with “The plates were then tilted at an approximately 80° angle for 15 min to allow the droplets to travel toward the opposite end of the plate. The plates were incubated for 24 h at 37° C. (TSA, VRBGA), for 48 h at 37° C. (BSA) or for 24 h at 37° C. (CA).” left out
In order to explore the broader utility of our approach, evaluation of additional cell types is needed. […] We later determined that VRBGA was a suitable common medium for this purpose and used this in our statistical analysis. […]

C. sakazakii 01088P = assay: MIL-based whole-cell extraction; set-up: species or system Cronobacter sakazakii; details: EF determined using Tryptic Soy Agar
Method: as §5
as §2, with “The plates were then tilted at an approximately 80° angle for 15 min to allow the droplets to travel toward the opposite end of the plate. The plates were incubated for 24 h at 37° C. (TSA, VRBGA), for 48 h at 37° C. (BSA) or for 24 h at 37° C. (CA).” left out

[3] = 1×10^5 CFU mL^−1 in TSB, 15 μL MIL
[4] = ranked from percent-loss in wash step

**Q.** For `CCCCCCCCCCCCCC[P+](CCCCCC)(CCCCCC)CCCCCC.O=C([CH-]C(=O)C(F)(F)F)C(F)(F)F.O=C([CH-]C(=O)C(F)(F)F)C(F)(F)F.O=C([CH-]C(=O)C(F)(F)F)C(F)(F)F.[Ni+2]` [Ni(II) MIL, [P66614^+][Ni(hfacac)3^−]], which “Enrichment Factor (BSA)” value [1, 3] is on record?
**A.** 11

**Q.** And the “Enrichment Factor (TSA)” value [1, 3]?
**A.** 17

**Q.** What about the Percent-Loss ([1]; cells lost to wash solution) of the same molecule?
**A.** 59 ± 3%

**Q.** What about the “Relative Affinity for MIL” value [1, 4] of the same molecule?
**A.** +++

**Q.** What about the “Enrichment Factor (TSA)” value [2, 3] of the same molecule?
**A.** 4

**Q.** And the Percent-Loss [2]?
**A.** 69 ± 5%

**Q.** And the Percent-Loss ([2]; listed as MIL)?
**A.** 79%

**Q.** And the “antimicrobial effect of capture process on deep rough mutant” value ([2]; post-capture growth behavior on TSA)?
**A.** not overtly antimicrobial

**Q.** And the “Relative Affinity for MIL” value [2, 4]?
**A.** ++

**Q.** What about the “Enrichment Factor (BSA)” value (S. bongori) of the same molecule?
**A.** 4

**Q.** What about the “Enrichment Factor (TSA)” value (S. bongori) of the same molecule?
**A.** 4

**Q.** What about the “Enrichment Factor” value (C. sakazakii 01088P) of the same molecule?
**A.** 12
